Laboratory results taken from patent publication US20250092069A1, “SILYL-LIPID CA[…] ENHANCED BIOLOGICAL ACTIVITY” (The Regents of the University of California, priority 2022, published 2025).

How the values were obtained:
TNF-α release = conditions: at 30 min, LPS-induced model; cited from earlier work
[1] = cited from earlier work
CB1 [2] = target: T1, CB1 (Homo sapiens, UniProt P21554); assay: CB1 β-arrestin recruitment agonist assay (Eurofin's); assay type: cell-based; conditions: agonist mode; for EC50: read-out: RC50 (EC50), agonist, CB1
CB1 [3] = target: T1, CB1; assay: CB1 β-arrestin recruitment antagonist assay (Eurofin's); assay type: cell-based; conditions: antagonist mode, 0.016 μM CP55940; for IC50: β-arrestin recruitment, read-out: RC50 (IC50), antagonist, CB1
From the text: (§1) For antagonist assays, data was normalized to the maximal and minimal response observed in the presence of EC80 ligand and vehicle.

CB2 [4] = target: T2, CB2 (Homo sapiens, UniProt P34972); assay: CB2 β-arrestin recruitment agonist assay (Eurofin's); assay type: cell-based; conditions: for Emax / EC50: β-arrestin recruitment, agonist mode; for EC50: read-out: RC50 (EC50), agonist, CB2
CB2 [5] = target: T2, CB2; assay: CB2 β-arrestin recruitment antagonist assay (Eurofin's); assay type: cell-based; conditions: antagonist mode, 0.0053 μM CP55940; for IC50: β-arrestin recruitment, read-out: RC50 (IC50), antagonist, CB2
From the text: as §1

[6] = normalized to response with EC80 ligand and vehicle

T1 sequence (P21554 whole entry): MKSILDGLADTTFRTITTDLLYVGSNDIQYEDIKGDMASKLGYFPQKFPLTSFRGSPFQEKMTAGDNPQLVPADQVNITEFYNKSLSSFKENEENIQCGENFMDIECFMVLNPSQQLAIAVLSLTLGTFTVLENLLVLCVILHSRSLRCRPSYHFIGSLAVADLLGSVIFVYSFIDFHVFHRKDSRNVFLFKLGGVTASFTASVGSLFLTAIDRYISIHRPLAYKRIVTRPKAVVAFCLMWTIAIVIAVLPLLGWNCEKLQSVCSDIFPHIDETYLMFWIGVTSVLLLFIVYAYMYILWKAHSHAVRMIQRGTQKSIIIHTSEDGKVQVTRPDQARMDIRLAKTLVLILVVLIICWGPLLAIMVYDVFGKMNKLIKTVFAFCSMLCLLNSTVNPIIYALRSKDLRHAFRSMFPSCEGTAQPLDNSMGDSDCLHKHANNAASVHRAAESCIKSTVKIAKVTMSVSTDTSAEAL
T2 sequence (P34972 whole entry): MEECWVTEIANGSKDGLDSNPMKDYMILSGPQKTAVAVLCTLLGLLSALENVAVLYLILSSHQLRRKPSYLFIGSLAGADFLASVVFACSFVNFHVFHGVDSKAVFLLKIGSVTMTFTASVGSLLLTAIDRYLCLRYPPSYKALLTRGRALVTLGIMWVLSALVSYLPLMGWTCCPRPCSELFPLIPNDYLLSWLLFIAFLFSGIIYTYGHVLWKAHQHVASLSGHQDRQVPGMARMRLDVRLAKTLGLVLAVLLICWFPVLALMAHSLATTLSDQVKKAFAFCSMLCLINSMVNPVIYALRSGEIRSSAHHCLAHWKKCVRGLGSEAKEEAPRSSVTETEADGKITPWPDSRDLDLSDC

For `Cc1ccc(-n2nc(C(C)(C)C)cc2NC(=O)Nc2ccc(OCCN3CCOCC3)c3ccccc23)cc1` [BIRB-796], the TNF-α suppression (TNF-α release) is given as 41%.
For `CC(C)(C)c1ccccc1` [t-butylbenzene], the “Log P” value [1] is given as 4.0.
In the case of `C=C(C)[C@H]1CCC(C)=C[C@@H]1c1c(O)cc(CC[Si](C)(C)CCCC)cc1O` [AAC-02], the EC50 (CB1 [2]) is reported as over 10000 nM, the Emax (CB1 [3]; [6]) is reported as 71.1% and the IC50 (CB1 [3]) is reported as 2230 nM. The “selectivity for CB2 vs CB1” value (CB2 [4]; agonist EC50 CB1 vs CB2) was 500 ×, the Emax (CB2 [4]) was 50.3% and the EC50 (CB2 [4]) was 18 nM. The IC50 (CB2 [5]) was over 10000 nM.
Compound `CCCCCCC(C)(C)c1ccc([C@@H]2C[C@H](O)CC[C@H]2CCCO)c(O)c1` [CP55,940, reference compound] has an Emax (CB2 [4]) of 101%.
In the case of `C[Si]1(C)CC(C(=O)O)N(C(=O)OCC2c3ccccc3-c3ccccc32)C1` (stereo not drawn) [Fmoc-Sip], the “Log P” value [1] is listed as 1.3.
For `O=C(O)[C@@H]1CCCN1C(=O)OCC1c2ccccc2-c2ccccc21` [Fmoc-Pro], the “Log P” value [1] is given as 0.094.
With SR 144528 [reference compound] the “Emax, antagonist, CB2” value (CB2 [5]; [6]) was 101.6%.
For `C[Si](C)(C)c1ccccc1` [trimethylsilyl-benzene], the “Log P” value [1] is listed as 4.7.
In the case of `C=C(C)[C@H]1CCC(C)=C[C@@H]1c1c(O)cc([Si](C)(C)CCCCCC)cc1O` [AAC-01], the Emax (CB1 [2]) is reported as 64.8%, the EC50 (CB1 [2]) is reported as 33.3 nM and the Emax (CB1 [3]; [6]) is reported as 86.4%. The IC50 (CB1 [3]) was 2070 nM, the Emax (CB2 [4]) was 70% and the EC50 (CB2 [4]) was 4.14 nM. For the same compound, the Emax (CB2 [5]; [6]) was 69.7% and the IC50 (CB2 [5]) was 1870 nM.
For `Cc1c(C(=O)NN2CCOCC2)nn(-c2ccc(Cl)cc2Cl)c1-c1ccc(I)cc1` [AM281, reference compound], the “Emax, antagonist, CB1” value (CB1 [3]; [6]) was 106.6% and the IC50 (CB1 [3]) was 10.5 nM.
